Source: patent US9012512B2, “Aqueous extracts from monocotyledon plants and their use in cardioprotection” (priority 2008, dated 2015)

Legend:
Assay type in all cases: cell-based
[1] = test system: rat thoracic aorta; assay: Combined vasorelaxing effects of TAA with GTN or SNP: phenylephrine-induced tension in rat thoracic aorta; settings: 0.1 μM agent alone; control vehicle 2.1 g
Protocol: The rats were allowed to acclimate in environmentally controlled quarters (20-22° C. with 12:12 hr light-dark cycles). […] After equilibration, the aortic rings were stabilized with a near maximal contraction induced by 0.3 μM phenylephrine. When the rings achieved a stable level of contraction, 3 μM acetylcholine was added to the bath, in which the aorta rings were soaked, to assess endothelial integrity. Intimas were gently frayed with a cotton swab to disrupt the endothelium.

[2] = test system: rat thoracic aorta; assay: Vasorelaxing effect on phenylephrine-induced contraction of rat thoracic aortic rings
[3] = test system: rat thoracic aorta; assay: Relaxation of phenylephrine-contracted rat aortic rings in the presence of acetylcholine; settings: 0.3 μM phenylephrine, acetylcholine 3 μM present
Protocol: Male Sprague-Dawley rats, weighing 250-350 g (Laboratory Animal Science Center of the National Yang-Ming University, Taipei, Taiwan), were used in this study. The rats were allowed to acclimate in environmentally controlled quarters (20-22° C. with 12:12 hr light-dark cycles). Thoracic aorta was excised carefully and fixed isometrically in organ chambers (15 mL) containing a 37° C. modified Krebs' solution (120 mM NaCl, 4.5 mM KCl, 2.5 mM CaCl2, 1 mM MgSO4, 27 mM NaHCO3, 1 mM KH2PO4, 10 mM glucose, pH 7.4) through which a mixture of 95% O2-5% CO2 was continuously supplied. The aortic rings of 3-4 mm were equilibrated under passive tension of 1.8 g for 60 min. After equilibration, the aortic rings were stabilized with a near maximal contraction induced by 0.3 μM phenylephrine. When the rings achieved a stable level of contraction, 3 μM acetylcholine was added to the bath, in which the aorta rings were soaked, to assess endothelial integrity. Intimas were gently frayed with a cotton swab to disrupt the endothelium.
The relaxation effect of TAA on rat thoracic aorta in the presence of acetylcholine was also investigated. Vascular contraction in rat aortic rings was induced by 0.3 μM phenylephrine as described above. Acetylcholine (3 μM) was added to the bath, in which the aortic rings were soaked, to assess endothelial integrity. […]

Compound O=[N+]([O-])OCC(CO[N+](=O)[O-])O[N+](=O)[O-] [GTN, glyceryltrinitrate] has a phenylephrine-induced tension [1] of 1.3 g.

O=C(O)/C=C(\CC(=O)O)C(=O)O [TAA, trans-aconitic acid] was tested, and the maximum relaxation induced ([2]; TAA 100 μM, contraction induced by 10 μM phenylephrine, n=16) was 40%, the “vasorelaxing effect in rat thoracic aorta” value ([2]; TAA 100 μM, phenylephrine precontracted aortic rings) was “significant vasorelaxing effect” and the “relaxation in phenylephrine-induced contraction” value ([2]; endothelium-intact preparations) was “concentration-dependent relaxation”. For the same compound, the increase of relaxation ([3]; TAA 100 μM, n=16) was 55% and the relaxation levels ([3]; TAA 0.1-100 μM) was “significant increase of relaxation levels”.
